Values of other authors in patent US20220193028A1, “THERAPEUTIC COMBINATIONS, LIQUID PHARMACEUTICAL COMPOSITIONS, KITS FOR THEIR PREPARATION, AND METHODS OF THEIR USE” (priority 2019, published 2022).

Biological target: AMPA receptor
Settings: non-competitive selective allosteric modulator of the AMPA receptor; read-out: IC50 (block of glutamate induced currents)

For `N#Cc1ccccc1-c1cc(-c2ccccn2)cn(-c2ccccc2)c1=O` [perampanel], the IC50 is given as roughly 560 nM.
